In US20250302974A1, “LECTIN-DRUG CONJUGATES” (UNICHEM LABORATORIES LIMITED, priority 2021, published 2025):
Like-named read-outs stand apart in the source and are kept apart here.

Legend:
[1] = tested on: T24 human bladder carcinoma xenograft; assay: Histopathological investigation of tumour tissue, T24 xenograft model; type: in vivo, human T24 tumor in nude mice; details: G2, 5 mg/kg, Weekly once; 'Moderately Differentiated' wrapped over two lines
Protocol: (§9) Effect of compound of Formula 16 was evaluated using T24 human bladder carcinoma xenograft model.

Th1 cytokines; IgM = assay: Effect on immune system (Th1 cytokines, IgM), T24 xenograft model; type: in vivo, mice
Protocol: as §9

[2] = tested on: T24 human bladder carcinoma xenograft; assay: Histopathological investigation of tumour tissue; type: in vivo, mice; details: 5 mg/kg, weekly once
Protocol: as §9

[3] = tested on: T24 human bladder carcinoma xenograft; assay: In vivo anti-tumor potential, T24 human bladder carcinoma xenograft model in female nude mice; details: G2, 5 mg/kg, Weekly once
Protocol: (§1) In vivo anti-tumor potential of compound of Formula 16 was evaluated using T24 human bladder carcinoma xenograft model in mice by assessing biological endpoints such as tumor growth and tumor growth inhibition.
(§2) Thirty-five healthy female nude mice bearing T24 tumor with volume of ˜100 mm3 were selected, randomized and allocated into five groups (G1-G5, n=7 animals per group). Body weight of each mouse was recorded on the day of randomization and daily till the end of the study. The tumor size was measured weekly twice from the day of test item/reference drug/vehicle dosing till the end of the experiment. Tumor size was measured by digital caliper (MITUTOYO, Japan) by measuring length and width. Body weight and tumor volume data was statistically analysed using two-way ANOVA (Bonferroni Test). Statistical analysis was conducted using PRISM software, version 5.01.p values of <0.05 were considered as statistically significant. Percentage survival proportions were analyzed by “Kaplan Meier” method.

[4] = tested on: T24 human bladder carcinoma xenograft; assay: In vivo anti-tumor potential, xenograft model (tumor volume, TGI, %T/C, body weight, survival); details: 5 mg/kg, weekly once
Protocol: as §1, §2

[5] = tested on: T24 human bladder carcinoma xenograft; assay: Effect on immune system (Th1 cytokines, IgM) in xenograft model; type: in vivo, mice
Protocol: as §9

[6] = Cytotoxic effect by MTT assay, 48 h; details: human
Protocol: (§3) Cells were treated with Test Items at various concentrations (0.0001 μM-10 μM) for 48 h. The cells corresponding to Positive Control group were treated with Doxorubicin at a concentration ranging from 0.1 μM-100 μM. The Untreated cells were used as Control. After 48 h of incubation, the effect of Test Items on cytotoxicity of cells was determined by MTT assay, the plates were taken out and 20 μl of 5 mg/m1 of MTT 3-(4,5-dimethythiazol-2-yl)-2,5-diphenyl tetrazolium bromide solution was added to all the wells. Cells were incubated for 3 h at 37° C. The supernatant was aspirated. 150 μl of DMSO was added to each well to dissolve formazan crystals. The absorbance of each well was then read at 540 nm using Synergy HT micro plate reader.
(§4) The % Cytotoxicity was calculated using the formula:
(§5) Where, X=Absorbance of cells treated with Test Item; R=Absorbance of Control cells (Untreated cells maintained in growth medium only).
(§6) Selectivity Index was calculated using the formula:
(§7) SI=IC50 in Normal cell/IC50 in cancer cell.
(§8) Activity scores of the Selective Index values were categorized as: • Not selective (SI value ≤1) • Moderately selective (1<SI value <5) • Selective (SI value ≥5)

T24 Bladder = assay: Cytotoxic effect by MTT assay, 48 h; details: Homo sapiens, 48 h
Protocol: as §3, §4, §5, §6, §7, §8

AGS Stomach = assay: Cytotoxic effect by MTT assay, 48 h; details: 48 h
Protocol: as §3, §4, §5, §6, §7, §8

PA-1 Ovary = assay: Cytotoxic effect by MTT assay, 48 h; details: 48 h
Protocol: as §3, §4, §5, §6, §7, §8

MG-63 Bone = assay: Cytotoxic effect by MTT assay, 48 h; details: Homo sapiens, MG-63, 48 h
Protocol: as §3, §4, §5, §6, §7, §8

MDA-MB-231 Breast = assay: Cytotoxic effect by MTT assay, 48 h; details: Homo sapiens, MDA-MB-231, 48 h
Protocol: as §3, §4, §5, §6, §7, §8

U251 MG Brain = assay: Cytotoxic effect by MTT assay, 48 h; details: Homo sapiens, U-251, 48 h
Protocol: as §3, §4, §5, §6, §7, §8

KB Cervix = assay: Cytotoxic effect by MTT assay, 48 h; details: 48 h
Protocol: as §3, §4, §5, §6, §7, §8

HT29 Colon = assay: Cytotoxic effect by MTT assay, 48 h; details: Homo sapiens, HT-29, 48 h
Protocol: as §3, §4, §5, §6, §7, §8

PANC-1 Pancreatic = assay: Cytotoxic effect by MTT assay, 48 h; details: Homo sapiens, PANC-1, 48 h, read-out: IC50 Values
Protocol: as §3, §4, §5, §6, §7, §8

[7] = Cytotoxic effect by MTT assay, 48 h; details: human; remark: listed apart in the source
Protocol: as §3, §4, §5, §6, §7, §8

A549 Lungs = assay: Cytotoxic effect by MTT assay, 48 h; details: Homo sapiens, A549, 48 h, read-out: IC50 Values
Protocol: as §3, §4, §5, §6, §7, §8

[8] = Cytotoxic effect by MTT assay, 48 h
Protocol: as §3, §4, §5

PBMC Normal = assay: Cytotoxic effect by MTT assay, 48 h; details: PBMC, 48 h, read-out: IC50 Values
Protocol: as §3, §4, §5

[9] = read-out: Percent cytotoxicity wrt control

N.N.[Cl][Pt][Cl] [Cisplatin]
Grade (differentiation) [1]: Moderately | IFN gamma (Th1 cytokine) (Th1 cytokines; IgM; G2, 5 mg/kg, i.p. (q7dX2)): 80.8 pg/mL | IL-2 (Th1 cytokine) (Th1 cytokines; IgM; G2, 5 mg/kg, i.p. (q7dX2)): 259.3 pg/mL | IL-4 (Th2 cytokine) (Th1 cytokines; IgM; G2, 5 mg/kg, i.p. (q7dX2)): 60 pg/mL | IL-10 (Th2 cytokine) (Th1 cytokines; IgM; G2, 5 mg/kg, i.p. (q7dX2)): BLQ | IgG (Th1 cytokines; IgM; G2, 5 mg/kg, i.p. (q7dX2)): 54 ng/mL | IgM (Th1 cytokines; IgM; G2, 5 mg/kg, i.p. (q7dX2)): 18 ng/mL | IgM (Th1 cytokines; IgM; T24 xenograft model): reduction in IgM | Apoptosis [2]: Mild | Grade [2]: 2 (Grade 2 (Moderately Differentiated) - <25-50% cells anaplastic) | Grade (differentiation in words) [2]: Moderately | Percent T/C Day 22 (Test/Control) [3]: 59.18% | Percent TGI Day 22 (Tumor Growth Inhibition) [3]: 40.82% | Percent survival [4]: 100% | Tumor growth delay [4]: 10.5 days | Percent T/C Day 22 ([4]; Day 22): 59.18% | Percent TGI Day 22 ([4]; Day 22): 40.82% | Tumor volume Day 22 ([4]; Day 22): 622.6 cu · mm | Percent body weight change Day 22 ([4]; Day 22, nude mice bearing T24 tumor): 6.3% | Immunoglobulins IgG ([5]; 5 mg/kg, i.p. (q7dX2)): 54 ng/mL | Immunoglobulins IgM ([5]; 5 mg/kg, i.p. (q7dX2)): 18 ng/mL | Th1 cytokines IFN gamma ([5]; 5 mg/kg, i.p. (q7dX2)): 80.8 pg/mL | Th1 cytokines IL-2 ([5]; 5 mg/kg, i.p. (q7dX2)): 259.3 pg/mL | Th2 cytokines IL-4 ([5]; 5 mg/kg, i.p. (q7dX2)): 60 pg/mL | Th2 cytokines IL-10 ([5]; 5 mg/kg, i.p. (q7dX2)): BLQ | IgM level ([5]; mouse, in vivo): reduction in IgM

COc1cccc2c1C(=O)c1c(O)c3c(c(O)c1C2=O)C[C@@](O)(C(=O)CO)C[C@@H]3O[C@H]1C[C@H](N)[C@H](O)[C@H](C)O1 [Doxorubicin]
cytotoxicity at 48 h, 0.1 µM [6]: -3.4% | IC50 (T24 Bladder; read-out: IC50 Values): 5.5 µM | cytotoxicity at 0.1 µM (T24 Bladder; [9]): 21% | cytotoxicity at 1 µM (T24 Bladder; [9]): 34.8% | cytotoxicity at 10 µM (T24 Bladder; [9]): 72.8% | cytotoxicity at 50 µM (T24 Bladder; [9]): 66.6% | cytotoxicity at 100 µM (T24 Bladder; [9]): 52.7% | IC50 (AGS Stomach; read-out: IC50 Values): 4.3 µM | cytotoxicity at 0.1 µM (AGS Stomach; [9]): 15.6% | cytotoxicity at 1 µM (AGS Stomach; [9]): 72.4% | cytotoxicity at 10 µM (AGS Stomach; [9]): 74.5% | cytotoxicity at 50 µM (AGS Stomach; [9]): 74.8% | cytotoxicity at 100 µM (AGS Stomach; [9]): 79% | IC50 (PA-1 Ovary; read-out: IC50 Values): 1 µM | cytotoxicity at 0.1 µM (PA-1 Ovary; [9]): 19.6% | cytotoxicity at 1 µM (PA-1 Ovary; [9]): 62.6% | cytotoxicity at 10 µM (PA-1 Ovary; [9]): 73.2% | cytotoxicity at 50 µM (PA-1 Ovary; [9]): 79% | cytotoxicity at 100 µM (PA-1 Ovary; [9]): 71.5% | IC50 (MG-63 Bone; read-out: IC50 Values): 0.4 µM | cytotoxicity at 0.1 µM (MG-63 Bone; [9]): 35.3% | cytotoxicity at 1 µM (MG-63 Bone; [9]): 60.7% | cytotoxicity at 10 µM (MG-63 Bone; [9]): 82% | cytotoxicity at 50 µM (MG-63 Bone; [9]): 85.5% | cytotoxicity at 100 µM (MG-63 Bone; [9]): 75.5% | IC50 (MDA-MB-231 Breast; read-out: IC50 Values): 2.1 µM | cytotoxicity at 0.1 µM (MDA-MB-231 Breast; [9]): 3.4% | cytotoxicity at 1 µM (MDA-MB-231 Breast; [9]): 68% | cytotoxicity at 10 µM (MDA-MB-231 Breast; [9]): 74.3% | cytotoxicity at 50 µM (MDA-MB-231 Breast; [9]): 71.3% | cytotoxicity at 100 µM (MDA-MB-231 Breast; [9]): 58% | IC50 (U251 MG Brain; read-out: IC50 Values): 8.1 µM | cytotoxicity at 0.1 µM (U251 MG Brain; [9]): -13.5% | cytotoxicity at 1 µM (U251 MG Brain; [9]): 41.7% | cytotoxicity at 10 µM (U251 MG Brain; [9]): 57.9% | cytotoxicity at 50 µM (U251 MG Brain; [9]): 71% | cytotoxicity at 100 µM (U251 MG Brain; [9]): 65.6% | IC50 (KB Cervix; read-out: IC50 Values): 0.6 µM | cytotoxicity at 0.1 µM (KB Cervix; [9]): 28.7% | cytotoxicity at 1 µM (KB Cervix; [9]): 53.1% | cytotoxicity at 10 µM (KB Cervix; [9]): 95.7% | cytotoxicity at 50 µM (KB Cervix; [9]): 91.7% | cytotoxicity at 100 µM (KB Cervix; [9]): 84.2% | IC50 (HT29 Colon; read-out: IC50 Values): 35.3 µM | cytotoxicity at 0.1 µM (HT29 Colon; [9]): 3.2% | cytotoxicity at 1 µM (HT29 Colon; [9]): 1.7% | cytotoxicity at 10 µM (HT29 Colon; [9]): 32.7% | cytotoxicity at 50 µM (HT29 Colon; [9]): 61.9% | cytotoxicity at 100 µM (HT29 Colon; [9]): 59.8% | IC50 (PANC-1 Pancreatic): 8.2 µM | cytotoxicity at 48 h, 0.1 µM [7]: 3.3% | IC50 (A549 Lungs): 11 µM | cytotoxicity at 48 h, 0.1 µM [8]: 5.3% | cytotoxicity at 48 h, 1 µM [8]: 29.3% | cytotoxicity at 48 h, 10 µM [8]: 37.4% | cytotoxicity at 48 h, 50 µM [8]: 40.5% | cytotoxicity at 48 h, 100 µM [8]: 37.1% | IC50 (PBMC Normal): > 100 µM
